Test results: publication PMC4947906, “Two fatty acyl reductases involved in moth pheromone biosynthesis” (Scientific Reports, 2016)

Key:
[1] = biological target: T1, SexpgFAR I (Spodoptera exigua, UniProt A0A0F6NS86); test: yeast expression, fatty alcohol by GC-MS; format: cell-based; conditions: fed as methyl ester 0.5 mM, 48 h, 30 °C, the acyl-CoA itself was not added
T1 construct: gene pgFARI; pYES2.1/V5-His TOPO in S. cerevisiae INVSc1
T1 sequence (A0A0F6NS86 1-459): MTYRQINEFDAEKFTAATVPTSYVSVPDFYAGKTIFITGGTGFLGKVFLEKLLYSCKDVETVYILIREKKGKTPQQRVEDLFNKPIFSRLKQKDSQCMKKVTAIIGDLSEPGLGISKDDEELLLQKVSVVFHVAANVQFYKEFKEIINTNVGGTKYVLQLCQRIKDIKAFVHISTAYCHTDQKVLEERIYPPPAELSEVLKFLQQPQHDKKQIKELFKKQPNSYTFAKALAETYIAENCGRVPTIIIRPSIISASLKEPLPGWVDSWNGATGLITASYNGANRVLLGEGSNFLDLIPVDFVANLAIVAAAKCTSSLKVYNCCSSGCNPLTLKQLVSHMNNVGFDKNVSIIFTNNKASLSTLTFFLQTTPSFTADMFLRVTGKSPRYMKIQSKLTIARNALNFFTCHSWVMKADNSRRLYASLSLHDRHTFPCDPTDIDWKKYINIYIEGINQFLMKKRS

[2] = biological target: T2, SexpgFAR II (Spodoptera exigua, UniProt A0A0P0IV71); test: yeast expression, fatty alcohol by GC-MS; format: cell-based; conditions: fed as methyl ester 0.5 mM, 48 h, 30 °C; the acyl-CoA itself was not added
T2 construct: gene pgFARII; pYES2.1/V5-His TOPO in S. cerevisiae INVSc1
T2 sequence (A0A0P0IV71 1-454): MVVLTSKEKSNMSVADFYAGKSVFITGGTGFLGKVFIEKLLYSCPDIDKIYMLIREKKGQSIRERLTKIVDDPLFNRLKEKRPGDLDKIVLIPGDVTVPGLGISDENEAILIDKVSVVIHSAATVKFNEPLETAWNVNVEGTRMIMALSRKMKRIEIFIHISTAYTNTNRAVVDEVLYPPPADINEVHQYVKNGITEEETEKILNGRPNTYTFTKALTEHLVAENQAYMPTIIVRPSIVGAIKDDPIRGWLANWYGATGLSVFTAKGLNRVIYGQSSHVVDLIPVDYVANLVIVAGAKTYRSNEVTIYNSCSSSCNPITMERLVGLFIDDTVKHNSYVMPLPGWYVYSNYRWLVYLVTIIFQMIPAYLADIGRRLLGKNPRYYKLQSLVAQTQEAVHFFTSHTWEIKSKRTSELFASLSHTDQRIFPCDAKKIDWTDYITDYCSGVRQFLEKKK

`CCCCCCCCCCCCCCCC(=O)SCCNC(=O)CCNC(=O)[C@H](O)C(C)(C)COP(=O)(O)OP(=O)(O)OC[C@H]1O[C@@H](n2cnc3c(N)ncnc32)[C@H](O)[C@@H]1OP(=O)(O)O` [C16:Acyl] was tested, and the “yeast expression, fatty alcohol by GC-MS” value ([1]; also endogenous C16 acyl of yeast) was “SexpgFAR I-transformed yeast cells produced a significantly higher quantity of C16 fatty alcohol”.

For `CCCC/C=C\CCCCCCCC(=O)OC` [Z9-14:acyl], the “yeast expression, fatty alcohol by GC-MS” value [2] was “SexpgFAR II exhibits specificity for Z9-14:acid and Z9E12-14:acid precursors”.

In the case of `C/C=C/C/C=C\CCCCCCCC(=O)OC` [Z9E12-14:acyl], the “yeast expression, fatty alcohol by GC-MS” value [2] is reported as “SexpgFAR II exhibits specificity for Z9-14:acid and Z9E12-14:acid precursors”.

For `CCCC/C=C\CCCCCCCCCC(=O)OC` [Z11-16:acyl], the “yeast expression, fatty alcohol by GC-MS” value [1] was “SexpgFAR I produced significantly more Z11-16:OH than SexpgFAR II”.
